Assay results: patent US20140213576A1, “NOVEL COMPOUND USEFUL FOR THE TREATMENT OF DEGENERATIVE AND INFLAMMATORY DISEASES” (GALAPAGOS NV, priority 2013, published 2014)
Where “and” joins values, the source holds several entries; their conditions need not be identical. Identical values can stand only once.

Experiments:
[1] = molecular target: T1, JAK1 (Homo sapiens, UniProt P23458); test: JAK1 Ki determination assay; type: biochemical; conditions: Lineweaver-Burk, varying ATP, Ulight-JAK-1 peptide; read-out: Ki against JAK1
T1 construct: Recombinant human JAK1 (catalytic domain, amino acids 866-1154; catalog number PV4774); purchased Invitrogen PV4774
T1 sequence (P23458 866-1154): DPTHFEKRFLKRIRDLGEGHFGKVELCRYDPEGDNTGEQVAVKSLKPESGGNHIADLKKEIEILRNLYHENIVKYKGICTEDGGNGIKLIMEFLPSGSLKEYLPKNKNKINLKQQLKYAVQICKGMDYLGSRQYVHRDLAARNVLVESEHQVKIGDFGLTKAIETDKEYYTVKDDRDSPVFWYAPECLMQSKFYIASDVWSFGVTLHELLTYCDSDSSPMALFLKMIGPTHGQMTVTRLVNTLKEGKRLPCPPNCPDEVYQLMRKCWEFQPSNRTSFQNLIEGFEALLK
Protocol: For the determination of Ki, different amounts of compound were mixed with the enzyme and the enzymatic reaction was followed as a function of ATP concentration. The Ki was determined by means of double reciprocal plotting of Km vs compound concentration (Lineweaver-Burk plot). 1 ng of JAK1 (Invitrogen, PV4774) is used in the assay. The substrate was 50 nM Ulight-JAK-1 (Tyr1023) Peptide (Perkin Elmer, TRF0121) The reaction is performed in 25 mM MOPS pH 6.8, 0.01%, 2 mM DTT, 5 mM MgCl2 Brij-35 with varying concentrations of ATP and compound. Phosphorylated substrate was measured using an Eu-labeled anti-phosphotyrosine antibody PT66 (Perkin Elmer, AD0068) as described in 1.1.2. Readout was performed on the envision (Perkin Elmer) with excitation at 320 nm and emission followed at 615 nm and 665 nm.

[2] = molecular target: T2, Recombinant human JAK3 catalytic domain (Homo sapiens, UniProt P52333); test: JAK3 inhibition assay (polyGT substrate); type: biochemical; conditions: 1 μM ATP, individual determinations, read-out: IC50 against JAK3
T2 construct: Recombinant human JAK3 catalytic domain (amino acids 781-1124; catalog number PV3855); purchased Invitrogen PV3855
T2 sequence (P52333 781-1124): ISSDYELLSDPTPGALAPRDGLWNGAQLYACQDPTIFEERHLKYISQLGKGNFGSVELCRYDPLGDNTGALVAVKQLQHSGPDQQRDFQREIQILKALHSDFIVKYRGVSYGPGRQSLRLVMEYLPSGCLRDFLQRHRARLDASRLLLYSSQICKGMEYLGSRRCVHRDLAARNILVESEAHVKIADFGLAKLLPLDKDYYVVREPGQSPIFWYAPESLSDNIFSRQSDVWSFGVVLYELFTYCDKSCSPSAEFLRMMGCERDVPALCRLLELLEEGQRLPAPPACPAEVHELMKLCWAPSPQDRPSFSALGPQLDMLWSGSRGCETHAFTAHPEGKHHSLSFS
Protocol: Recombinant human JAK3 catalytic domain (amino acids 781-1124; catalog number PV3855) was purchased from Invitrogen. 0.5 ng JAK3 protein was incubated with 2.5 μg polyGT substrate (Sigma catalog number P0275) in kinase reaction buffer (25 mM Tris pH 7.5, 0.5 mM EGTA, 10 mM MgCl2, 2.5 mM DTT, 0.5 mM Na3VO4, 5 mM b-glycerolphosphate, 0.01% Triton X-100, 1 μM non-radioactive ATP, 0.25 μCi ^33P-gamma-ATP (GE Healthcare, catalog number AH9968) final concentrations) with or without 5 μL containing test compound or vehicle (DMSO, 1% final concentration), in a total volume of 25 μL, in a polypropylene 96-well plate (Greiner, V-bottom). […]
6005177) using a cell harvester (Perkin Elmer). […] 40 μL/well of Microscint-20 was added, the top of the plates was sealed and readout was performed using the Topcount (Perkin Elmer). Kinase activity was calculated by subtracting counts per min (cpm) obtained in the presence of a positive control inhibitor (10 μM staurosporine) from cpm obtained in the presence of vehicle. The ability of a test compound to inhibit this activity was determined as:
(§1) Percentage inhibition=((cpm determined for sample with test compound present−cpm determined for sample with positive control inhibitor) divided by (cpm determined in the presence of vehicle−cpm determined for sample with positive control inhibitor))*100. […]

[3] = molecular target: T3, Recombinant human TYK2 catalytic domain (Homo sapiens, UniProt P29597); test: TYK2 inhibition assay (polyGT substrate); type: biochemical; conditions: 0.1 μM ATP, individual determinations, read-out: IC50 against TYK2
T3 construct: Recombinant human TYK2 catalytic domain (amino acids 871-1187; catalog number 08-147); purchased Carna biosciences 08-147
T3 sequence (P29597 871-1187): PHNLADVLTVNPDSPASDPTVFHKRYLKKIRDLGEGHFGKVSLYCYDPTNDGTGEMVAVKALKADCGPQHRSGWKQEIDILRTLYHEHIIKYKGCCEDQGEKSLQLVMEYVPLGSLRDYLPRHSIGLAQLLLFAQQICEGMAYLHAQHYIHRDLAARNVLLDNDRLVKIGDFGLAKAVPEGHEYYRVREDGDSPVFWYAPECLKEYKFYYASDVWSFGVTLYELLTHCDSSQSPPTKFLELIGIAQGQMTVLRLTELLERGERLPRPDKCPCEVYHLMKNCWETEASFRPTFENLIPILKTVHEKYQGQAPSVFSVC
Protocol: Recombinant human TYK2 catalytic domain (amino acids 871-1187; catalog number 08-147) was purchased from Carna biosciences. 5 ng of TYK2 was incubated with 12.5 μg polyGT substrate (Sigma catalog number P0275) in kinase reaction buffer (25 mM Hepes pH 7.2, 50 mM NaCl, 0.5 mM EDTA, 1 mM DTT, 5 mM MnCl2, 10 mM MgCl2, 0.1% Brij-35, 0.1 μM non-radioactive ATP, 0.125 μCi ^33P-gamma-ATP (GE Healthcare, catalog number AH9968) final concentrations) with or without 5 μL containing test compound or vehicle (DMSO, 1% final concentration), in a total volume of 25 μL, in a polypropylene 96-well plate (Greiner, V-bottom). After 90 min at 30° C., reactions were stopped by adding 25 μL/well of 150 mM phosphoric acid. […] 40 μL/well of Microscint-20 was added, the top of the plates was sealed and readout was performed using the Topcount (Perkin Elmer). Kinase activity was calculated by subtracting counts per min (cpm) obtained in the presence of a positive control inhibitor (10 μM staurosporine) from cpm obtained in the presence of vehicle. The ability of a test compound to inhibit this activity was determined as:
as §1

[4] = tested on: CTLL2 (ATCC TIB-214); test: CTLL2 viability assay; type: cell-based; conditions: IL2-dependent viability, ATP-lite, individual determinations
Protocol: The protocol describes the methods to analyse the activity of compounds on the ability to sustain the IL2-dependent viability of CTLL2 (ATCC TIB-214).
Negative control is a DMSO dilution, positive control at 10 μM. Final DMSO concentration is 0.1%.

Ki [1]: 9.21 nM
IC50 [2]: 1320 nM and 523 nM and 460 nM and 345 nM and 689 nM and 685 nM and 515 nM and 324 nM and 537 nM
IC50 [3]: 844 nM and 461 nM and 470 nM and 488 nM and 759 nM and 754 nM and 1000 nM and 501 nM and 688 nM
Compound: CCc1cc(C2CN(S(C)(=O)=O)C2)ncc1N(C)c1cc2c(cn1)ncn2C [Compound 1, [4-Ethyl-6-(1-methanesulfonyl-azetidin-3-yl)-pyridin-3-yl]-methyl-(1-methyl-1H-imidazo[4,5-d]pyridin-6-yl)-amine]
IC50 ([4]; 24 h, listed as compound of the invention): 3790 nM
IC50 ([4]; Mus musculus, CTLL-2, 24 h): 7390 nM
